Measured values published in PMC4891385 (Clinical Drug Investigation, 2016).

Key:
Assay type in all cases: in vitro ADME
OCT1 = target: T1, OCT1 (Homo sapiens, UniProt O15245); experiment: [14C]-lesinurad uptake, substrate test, hOCT1 MDCK-II cells
T1 sequence (O15245 1-554): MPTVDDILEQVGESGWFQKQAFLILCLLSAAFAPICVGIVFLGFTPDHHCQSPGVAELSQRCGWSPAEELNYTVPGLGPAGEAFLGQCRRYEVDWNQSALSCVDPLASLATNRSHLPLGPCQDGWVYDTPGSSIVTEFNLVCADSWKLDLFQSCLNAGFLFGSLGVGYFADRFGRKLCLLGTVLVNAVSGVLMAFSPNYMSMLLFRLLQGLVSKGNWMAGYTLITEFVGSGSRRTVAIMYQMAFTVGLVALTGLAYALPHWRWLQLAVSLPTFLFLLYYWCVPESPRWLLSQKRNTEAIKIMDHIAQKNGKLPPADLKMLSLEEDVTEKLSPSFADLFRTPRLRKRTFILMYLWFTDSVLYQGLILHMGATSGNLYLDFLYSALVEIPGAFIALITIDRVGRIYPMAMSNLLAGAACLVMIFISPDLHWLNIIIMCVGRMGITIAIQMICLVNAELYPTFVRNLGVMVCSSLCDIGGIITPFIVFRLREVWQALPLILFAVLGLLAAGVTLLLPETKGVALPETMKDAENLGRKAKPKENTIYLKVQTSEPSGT

BCRP = target: T2, BCRP (Homo sapiens, UniProt Q9UNQ0); experiment: [14C]-lesinurad substrate test, BCRP in Caco-2 cells
T2 sequence (Q9UNQ0 1-655): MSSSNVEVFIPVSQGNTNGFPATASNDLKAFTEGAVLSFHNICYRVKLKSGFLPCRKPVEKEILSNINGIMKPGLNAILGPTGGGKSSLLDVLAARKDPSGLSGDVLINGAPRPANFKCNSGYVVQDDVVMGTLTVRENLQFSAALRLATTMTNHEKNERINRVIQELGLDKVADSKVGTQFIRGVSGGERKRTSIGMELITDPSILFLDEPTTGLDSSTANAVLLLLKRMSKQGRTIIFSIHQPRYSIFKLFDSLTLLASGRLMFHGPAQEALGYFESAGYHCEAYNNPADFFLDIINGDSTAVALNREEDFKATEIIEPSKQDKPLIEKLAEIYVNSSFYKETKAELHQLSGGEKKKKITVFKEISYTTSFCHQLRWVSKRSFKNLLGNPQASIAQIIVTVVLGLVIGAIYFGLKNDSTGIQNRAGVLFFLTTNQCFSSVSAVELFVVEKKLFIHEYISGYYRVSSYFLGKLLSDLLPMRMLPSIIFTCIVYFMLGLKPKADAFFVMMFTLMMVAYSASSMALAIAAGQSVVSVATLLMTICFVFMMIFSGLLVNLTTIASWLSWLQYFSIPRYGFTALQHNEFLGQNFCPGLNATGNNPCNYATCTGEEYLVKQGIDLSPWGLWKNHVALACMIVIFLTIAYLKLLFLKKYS

OATP1B3 = target: T3, OATP1B3 (Homo sapiens, UniProt Q9NPD5); experiment: [14C]-lesinurad uptake, substrate test, hOATP1B3 MDCK-II cells
T3 sequence (Q9NPD5 1-702): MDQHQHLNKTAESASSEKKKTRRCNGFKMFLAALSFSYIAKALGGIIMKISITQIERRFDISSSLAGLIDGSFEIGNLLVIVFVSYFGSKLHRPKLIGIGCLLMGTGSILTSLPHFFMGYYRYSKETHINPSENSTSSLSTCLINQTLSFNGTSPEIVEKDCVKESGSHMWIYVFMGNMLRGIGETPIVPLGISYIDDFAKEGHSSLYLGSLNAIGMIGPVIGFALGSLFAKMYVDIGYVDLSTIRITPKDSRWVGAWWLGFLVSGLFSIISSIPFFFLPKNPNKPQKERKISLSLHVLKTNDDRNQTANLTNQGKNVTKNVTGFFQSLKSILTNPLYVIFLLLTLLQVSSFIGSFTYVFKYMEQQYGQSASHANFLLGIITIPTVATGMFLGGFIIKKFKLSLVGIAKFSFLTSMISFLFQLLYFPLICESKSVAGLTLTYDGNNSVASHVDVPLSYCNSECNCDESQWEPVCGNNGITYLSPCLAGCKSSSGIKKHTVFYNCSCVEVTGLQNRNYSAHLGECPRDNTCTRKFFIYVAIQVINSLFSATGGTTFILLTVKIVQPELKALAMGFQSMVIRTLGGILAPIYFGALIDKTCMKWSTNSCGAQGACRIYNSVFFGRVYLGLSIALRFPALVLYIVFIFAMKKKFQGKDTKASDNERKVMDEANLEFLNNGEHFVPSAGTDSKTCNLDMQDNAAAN

Lesinurad as substrate (OCT1): weak substrate
Lesinurad as substrate (BCRP): minor substrate
Lesinurad as substrate (OATP1B3): not a substrate
Compound: O=C(O)CSc1nnc(Br)n1-c1ccc(C2CC2)c2ccccc12 [lesinurad]
